Laboratory results taken from US20050197350A1, “Novel quinoline, tetrahydroquinazoline, and pyrimidine derivatives and methods of treatment related to the use thereof” (TAISHO PHARMACEUTICAL CO., LTD., priority 2003, published 2005).

What follows are compounds tested on MCH receptors (assay: MCH receptor activity class (method not given)). Conditions: class by percent of control at 10^-7 M or IC50.

Q: `CN(C)c1nc(N[C@H]2CC[C@@H](NC(=O)Nc3cccc(C(F)(F)F)c3)CC2)nc2c1CCCC2` [compound 1838] was tested. Which class did it give?
A: 3 (Class 3 The value of percent of control at 10^−7 M was more than 60% or the value of IC50 was more than 200 nM.)

Q: How did the class turn out when `CCO[Si](CCCNC(=O)N[C@H]1CC[C@@H](Nc2nc3c(c(N(C)C)n2)CCCC3)CC1)(OCC)OCC` [compound 1839] was run?
A: 3 (Class 3 The value of percent of control at 10^−7 M was more than 60% or the value of IC50 was more than 200 nM.)

Q: How did the class turn out when `Cc1cccc(NC(=O)N[C@H]2CC[C@@H](Nc3nc4c(c(N(C)C)n3)CCCC4)CC2)c1` [compound 1840] was run?
A: 3 (Class 3 The value of percent of control at 10^−7 M was more than 60% or the value of IC50 was more than 200 nM.)

Q: For `Cc1ccc(NC(=O)N[C@H]2CC[C@@H](Nc3nc4c(c(N(C)C)n3)CCCC4)CC2)cc1Cl` [compound 1841], which class is on record?
A: 3 (Class 3 The value of percent of control at 10^−7 M was more than 60% or the value of IC50 was more than 200 nM.)

Q: For `CC(NC(=O)NC1CCC(Nc2nc3c(c(N(C)C)n2)CCCC3)CC1)c1cccc2ccccc12` (centres unmarked) [compound 1842], which class is on record?
A: 3 (Class 3 The value of percent of control at 10^−7 M was more than 60% or the value of IC50 was more than 200 nM.)

Q: For `CN(C)c1nc(N[C@H]2CC[C@@H](NC(=O)Nc3ccccc3OC(F)F)CC2)nc2c1CCCC2` [compound 1843], which class is on record?
A: 3 (Class 3 The value of percent of control at 10^−7 M was more than 60% or the value of IC50 was more than 200 nM.)

Q: `COC(=O)c1ccccc1NC(=O)N[C@H]1CC[C@@H](Nc2nc3c(c(N(C)C)n2)CCCC3)CC1` [compound 1844] was tested. Which class did it give?
A: 3 (Class 3 The value of percent of control at 10^−7 M was more than 60% or the value of IC50 was more than 200 nM.)

Q: `CSc1ccccc1NC(=O)N[C@H]1CC[C@@H](Nc2nc3c(c(N(C)C)n2)CCCC3)CC1` [compound 1845] was tested. Which class did it give?
A: 3 (Class 3 The value of percent of control at 10^−7 M was more than 60% or the value of IC50 was more than 200 nM.)

Q: Which class does the source give for `CN(C)c1nc(N[C@H]2CC[C@@H](NC(=O)Nc3cc(Cl)c(Cl)cc3Cl)CC2)nc2c1CCCC2` [compound 1846] here?
A: 2 (Class 2: The value of percent of control at 10^−7 M was from 40% to 60% or the value of IC′50 was from 50 nM to 200 nM.)

Q: With `Cc1ccc(NC(=O)N[C@H]2CC[C@@H](Nc3nc4c(c(N(C)C)n3)CCCC4)CC2)c(C)c1` [compound 1847] as the compound, how does the class read?
A: 3 (Class 3 The value of percent of control at 10^−7 M was more than 60% or the value of IC50 was more than 200 nM.)

Q: For `CN(C)c1nc(N[C@H]2CC[C@@H](NC(=O)Nc3cc(F)ccc3F)CC2)nc2c1CCCC2` [compound 1848], which class is on record?
A: 3 (Class 3 The value of percent of control at 10^−7 M was more than 60% or the value of IC50 was more than 200 nM.)

Q: For `COc1ccc(OC)c(NC(=O)N[C@H]2CC[C@@H](Nc3nc4c(c(N(C)C)n3)CCCC4)CC2)c1` [compound 1849, N-(2,5-dimethoxyphenyl)-N′-(cis-4-{[4-(dimethylamino)-5,6,7,8-tetrahydroquinazolin-2-yl]amino}cyclohexyl)urea], which class is on record?
A: 2 (Class 2: The value of percent of control at 10^−7 M was from 40% to 60% or the value of IC′50 was from 50 nM to 200 nM.)

Q: Which class does the source give for `Cc1ccc(C)c(NC(=O)N[C@H]2CC[C@@H](Nc3nc4c(c(N(C)C)n3)CCCC4)CC2)c1` [compound 1850] here?
A: 3 (Class 3 The value of percent of control at 10^−7 M was more than 60% or the value of IC50 was more than 200 nM.)

Q: `CN(C)c1nc(N[C@H]2CC[C@@H](NC(=O)Nc3ccccc3Cc3ccccc3)CC2)nc2c1CCCC2` [compound 1851] was tested. Which class did it give?
A: 3 (Class 3 The value of percent of control at 10^−7 M was more than 60% or the value of IC50 was more than 200 nM.)

Q: How did the class turn out when `CN(C)c1nc(N[C@H]2CC[C@@H](NC(=O)Nc3c(F)cc(F)cc3Br)CC2)nc2c1CCCC2` [compound 1852] was run?
A: 3 (Class 3 The value of percent of control at 10^−7 M was more than 60% or the value of IC50 was more than 200 nM.)

Q: Which class does the source give for `CN(C)c1nc(N[C@H]2CC[C@@H](NC(=O)Nc3ccc(C(F)(F)F)cc3Cl)CC2)nc2c1CCCC2` [compound 1853] here?
A: 3 (Class 3 The value of percent of control at 10^−7 M was more than 60% or the value of IC50 was more than 200 nM.)

Q: With `CN(C)c1nc(N[C@H]2CC[C@@H](NC(=O)Nc3ccc([N+](=O)[O-])cc3Cl)CC2)nc2c1CCCC2` [compound 1854] as the compound, how does the class read?
A: 3 (Class 3 The value of percent of control at 10^−7 M was more than 60% or the value of IC50 was more than 200 nM.)

Q: Which class does the source give for `CN(C)c1nc(N[C@H]2CC[C@@H](NC(=O)Nc3cc(C(F)(F)F)ccc3Cl)CC2)nc2c1CCCC2` [compound 1855] here?
A: 3 (Class 3 The value of percent of control at 10^−7 M was more than 60% or the value of IC50 was more than 200 nM.)

Q: Which class does the source give for `Cc1ccc(Cl)c(NC(=O)N[C@H]2CC[C@@H](Nc3nc4c(c(N(C)C)n3)CCCC4)CC2)c1` [compound 1856] here?
A: 3 (Class 3 The value of percent of control at 10^−7 M was more than 60% or the value of IC50 was more than 200 nM.)

Q: How did the class turn out when `CCOC(=O)c1ccccc1NC(=O)N[C@H]1CC[C@@H](Nc2nc3c(c(N(C)C)n2)CCCC3)CC1` [compound 1857] was run?
A: 3 (Class 3 The value of percent of control at 10^−7 M was more than 60% or the value of IC50 was more than 200 nM.)

Q: `CN(C)c1nc(N[C@H]2CC[C@@H](NC(=O)Nc3cccc(C(F)(F)F)c3F)CC2)nc2c1CCCC2` [compound 1858] was tested. Which class did it give?
A: 3 (Class 3 The value of percent of control at 10^−7 M was more than 60% or the value of IC50 was more than 200 nM.)

Q: For `CN(C)c1nc(N[C@H]2CC[C@@H](NC(=O)Nc3cc(C(F)(F)F)ccc3F)CC2)nc2c1CCCC2` [compound 1859], which class is on record?
A: 3 (Class 3 The value of percent of control at 10^−7 M was more than 60% or the value of IC50 was more than 200 nM.)

Q: For `Cc1ccc(F)c(NC(=O)N[C@H]2CC[C@@H](Nc3nc4c(c(N(C)C)n3)CCCC4)CC2)c1` [compound 1860], which class is on record?
A: 3 (Class 3 The value of percent of control at 10^−7 M was more than 60% or the value of IC50 was more than 200 nM.)

Q: Which class does the source give for `COc1cc([N+](=O)[O-])ccc1NC(=O)N[C@H]1CC[C@@H](Nc2nc3c(c(N(C)C)n2)CCCC3)CC1` [compound 1861] here?
A: 3 (Class 3 The value of percent of control at 10^−7 M was more than 60% or the value of IC50 was more than 200 nM.)

Q: Which class does the source give for `COc1ccc([N+](=O)[O-])cc1NC(=O)N[C@H]1CC[C@@H](Nc2nc3c(c(N(C)C)n2)CCCC3)CC1` [compound 1862] here?
A: 3 (Class 3 The value of percent of control at 10^−7 M was more than 60% or the value of IC50 was more than 200 nM.)

Q: How did the class turn out when `CN(C)c1nc(N[C@H]2CC[C@@H](NC(=O)Nc3ccc4ccccc4c3)CC2)nc2c1CCCC2` [compound 1863] was run?
A: 3 (Class 3 The value of percent of control at 10^−7 M was more than 60% or the value of IC50 was more than 200 nM.)

Q: For `CN(C)c1nc(N[C@H]2CC[C@@H](NC(=O)Nc3ccccc3Oc3ccccc3)CC2)nc2c1CCCC2` [compound 1864], which class is on record?
A: 3 (Class 3 The value of percent of control at 10^−7 M was more than 60% or the value of IC50 was more than 200 nM.)

Q: Which class does the source give for `CSc1cccc(NC(=O)N[C@H]2CC[C@@H](Nc3nc4c(c(N(C)C)n3)CCCC4)CC2)c1` [compound 1865] here?
A: 3 (Class 3 The value of percent of control at 10^−7 M was more than 60% or the value of IC50 was more than 200 nM.)

Q: For `CN(C)c1nc(N[C@H]2CC[C@@H](NC(=O)Nc3cccc(SC(F)(F)F)c3)CC2)nc2c1CCCC2` [compound 1866], which class is on record?
A: 3 (Class 3 The value of percent of control at 10^−7 M was more than 60% or the value of IC50 was more than 200 nM.)
